Earlier results on one substance are cited in publication PMC9147442, “Design, Synthesis, and Evaluation of Linker-Optimised PSMA-Targeting Radioligands” (Pharmaceutics, 2022).

Details of the data set: method as in PMID 26985056. As to conditions: radiotherapy.

Take [^177Lu]Lu-PSMA-617: the renal excretion is on record as ~ 50 % IA.
